Measured values taken from PubChem BioAssay (NCI).
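Five compound concentrations were applied to cells in 96-well plates for 48 hours; endpoints were derived by simple linear interpolation of the resulting dose-response curve. At the GI50, growth is halved. TGI marks complete inhibition of growth.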

Columns and labels:
Assay in all cases: NCI anticancer screen, dose series, 48 h
[1] = test system: CAKI-1 renal
[2] = test system: HCT-15 colon
[3] = test system: A498 renal
[4] = test system: OVCAR-5 ovarian
[5] = test system: UO-31 renal
[6] = test system: KM12 colon
[7] = test system: RPMI-8226 leukemia
[8] = test system: NCI-H460 lung
[9] = test system: HT29 colon
[10] = test system: PC-3 prostate

Row | Structure (SMILES) | TGI [1] [µM] | TGI [2] [µM] | TGI [3] [µM] | TGI [4] [µM] | TGI [5] [µM] | TGI [6] [µM] | TGI [7] [µM] | TGI [8] [µM] | TGI [9] [µM] | TGI [10] [µM] | GI50 [1] [µM] | GI50 [3] [µM] | GI50 [4] [µM] | GI50 [5] [µM] | GI50 [7] [µM]
1 | O=C(Nc1ccc(Cl)cc1)/C(Cc1cccc[n+]1[O-])=N\Nc1ccc([N+](=O)[O-])cc1[N+](=O)[O-] | > 100 | > 100 | > 100 | > 100 | > 100 | > 100 | > 100 | > 100 | – | – | – | – | – | – | –
2 | CC[C@@H](C(=O)[C@@H](C)[C@@H](O)[C@H](C)CCc1ccc(C)c(O)c1C(=O)O)[C@H]1O[C@](CC)([C@H]2CC[C@](O)(CC)[C@H](C)O2)C[C@@H]1C | 11.7 | 16 | 2.37 | 19.3 | 12.4 | 9.57 | 5.28 | 9.47 | 12.6 | – | – | – | – | – | –
3 | CCOC(=O)c1cc2c([nH]1)C(=O)CC1=C2CCN1Cc1ccccc1 | 15 | 21.6 | 29 | – | 29.5 | 33.2 | 16.6 | 39.2 | 30.8 | 47.2 | – | – | – | – | –
4 | CC(=O)OC1CC2(c3ccccc3)C(=O)c3ccccc3N2O1 (stereo unspecified) | – | > 100 | > 100 | – | > 100 | – | > 100 | – | > 100 | – | – | – | – | – | –
5 | CCCCCC(=O)OCC1(CO)C/C(=C\CC(C(C)C)C(C)C)C(=O)O1 (stereo unspecified) | > 100 | > 100 | > 100 | > 100 | > 100 | > 100 | – | > 100 | > 100 | > 100 | – | – | – | – | –
6 | CN1CCN(C(=S)N(C(=O)c2ccco2)c2ccccc2)CC1 | – | > 100 | – | > 100 | > 100 | > 100 | > 100 | > 100 | > 100 | – | – | – | – | – | –
7 | O=C(N/N=C1/C(=O)c2c3ccccc3cc3cccc1c23)c1cccc(Cl)c1 | > 100 | > 100 | > 100 | > 100 | – | > 100 | > 100 | > 100 | > 100 | > 100 | – | – | – | – | –
8 | CC(C)CC(=O)NC(NC(C)C)(C(F)(F)F)C(F)(F)F | > 100 | > 100 | – | – | > 100 | > 100 | > 100 | > 100 | > 100 | > 100 | – | – | – | – | –
9 | Nc1nc(NNc2ccc(Cl)c(Cl)c2)cc(=O)[nH]1 | – | 58.7 | > 100 | > 100 | > 100 | > 100 | > 100 | > 100 | > 100 | > 100 | – | – | – | – | –
10 | O=P1(Oc2ccc(Cl)cc2)OCCS1 (stereo unspecified) | – | > 100 | > 100 | > 100 | > 100 | – | > 100 | > 100 | > 100 | > 100 | – | – | – | – | –
11 | O=C1c2nn(-c3ccccc3)nc2C(c2ccccc2)N1c1ccccc1 (stereo unspecified) | > 100 | > 100 | – | > 100 | > 100 | > 100 | > 100 | > 100 | > 100 | – | – | – | – | – | –
12 | CN(C)CC(CO)(CN(C)C)CN(C)C | > 100 | > 100 | – | > 100 | > 100 | > 100 | > 100 | > 100 | > 100 | > 100 | – | – | – | – | –
13 | O=c1cc(CC(O)(C(F)(F)Cl)C(F)(F)Cl)[nH]n1-c1ccccc1 | – | > 100 | > 100 | > 100 | > 100 | > 100 | > 100 | > 100 | > 100 | – | – | – | – | – | –
14 | CN1CCN(Cc2ccc(NC(=O)c3ccc(C#N)c(C#Cc4cnc(N)c5ncccc45)c3)cc2C(F)(F)F)CC1 | 5.04 | – | 10.6 | 3.34 | 2.99 | – | 8.59 | – | – | – | 1.91 | 3.25 | 1.71 | 1.6 | 2.74
15 | O=C1C2CCC(C2)C12CC1(c3ccccc3)C(=O)c3ccccc3N1O2 (stereo unspecified) | – | > 100 | > 100 | – | > 100 | – | > 100 | – | > 100 | – | – | – | – | – | –
16 | CC12CC[C@H](O)C(C)(C)[C@H]1CC[C@](C)(O)C2COc1ccc2ccc(=O)oc2c1 (stereo partly specified) | – | > 100 | > 100 | – | > 100 | > 100 | > 100 | > 100 | > 100 | – | – | – | – | – | –
17 | COc1ccc(C2=NN(c3ccccc3)C(c3cc4cc(Br)ccc4nc3Cl)C2)cc1 (stereo unspecified) | > 25 | > 25 | – | > 25 | > 25 | > 25 | > 25 | – | > 25 | > 25 | – | – | – | – | –
18 | Cc1ccc(S(=O)(=O)Oc2ccc(OS(=O)(=O)c3ccc(C)cc3)c3c2C(=O)c2ccccc2C3=O)cc1 | > 100 | > 100 | – | > 100 | > 100 | > 100 | – | > 100 | > 100 | > 100 | – | – | – | – | –
19 | COc1ccc([N-]/C(=N\n2c(=O)c(C)nn(C)c2=S)N(c2ccc(OC)cc2)c2nn3c(=O)c(C)n[n+](C)c3s2)cc1 | – | > 100 | > 100 | > 100 | – | > 100 | > 100 | > 100 | > 100 | – | – | – | – | – | –
20 | Cc1ccc(/C(=C/C=C(C#N)C#N)Sc2cc(Cl)ccc2Cl)cc1 | 19.9 | 12.5 | – | 19.4 | > 100 | 28 | – | > 100 | > 100 | – | – | – | – | – | –
21 | O=c1c2ccccc2nc(-c2ccccc2)n1NC(=S)Nc1ccc(Cl)cc1[N+](=O)[O-] | > 100 | > 100 | > 100 | > 100 | > 100 | > 100 | > 100 | > 100 | > 100 | – | – | – | – | – | –
22 | CC(C)c1cccc(C(C)C)c1NC(=O)C(=O)C(C(=O)c1ccc2ccccc2c1)C1OC(=O)c2ccccc21 (stereo unspecified) | > 100 | > 100 | > 100 | > 100 | > 100 | > 100 | > 100 | > 100 | > 100 | – | – | – | – | – | –
23 | COc1ccc(C2ON(c3ccccn3)CC=C2C)cc1 (stereo unspecified) | > 100 | > 100 | – | > 100 | > 100 | > 100 | > 100 | > 100 | > 100 | – | – | – | – | – | –
24 | C=C(C)[C@@]1(O)CCC[C@H]1NC(=O)OC(C)(C)C | > 100 | > 100 | > 100 | > 100 | > 100 | > 100 | – | > 100 | > 100 | > 100 | – | – | – | – | –
25 | CC1(C)CN=C(Nc2ccc(Cl)cc2)S1 | > 100 | > 100 | – | > 100 | > 100 | > 100 | > 100 | – | > 100 | > 100 | – | – | – | – | –
